± gives the standard error.
Assays:
[1] = tested on: 621-103 (TSC2-rescued); test: relative viability vs DMSO; higher = less cytotoxic; details: serum: 10% FBS, 72 h
[2] = tested on: 621-102 (TSC2-deficient); test: as above; details: serum: 10% FBS, 72 h
[3] = tested on: UMB1949 (TSC2-deficient); test: relative viability vs DMSO (fraction); higher = less cytotoxic; details: serum: 0.1% FBS, 72 h;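 also: renal angiomyolipoma cell lines screened in 384-well plates, viability normalized per plate to DMSO-treated cells, each plate carrying 50 nM rapamycin and 1 µM staurosporine controls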
[4] = tested on: 621-102 (TSC2-deficient); test: as above; details: serum: 0.1% FBS, 72 h

Row | SMILES | relative viability ([1]; 0.0001 µM) [%] | relative viability ([1]; 0.001 µM) [%] | relative viability ([1]; 0.01 µM) [%] | relative viability ([1]; 0.1 µM) [%] | relative viability ([1]; 1 µM) [%] | relative viability ([1]; 10 µM) [%] | relative viability ([2]; 0.0001 µM) [%] | relative viability ([2]; 0.001 µM) [%] | relative viability ([2]; 0.01 µM) [%] | relative viability ([2]; 0.1 µM) [%] | relative viability ([2]; 1 µM) [%] | relative viability ([2]; 10 µM) [%] | relative viability ([3]; 0.0128 nM) | relative viability ([3]; 0.064 nM) | relative viability ([3]; 0.32 nM) | relative viability ([3]; 1.6 nM) | relative viability ([3]; 8 nM) | relative viability ([3]; 40 nM) | relative viability ([3]; 200 nM) | relative viability ([3]; 1000 nM) | relative viability ([3]; 5000 nM) | relative viability ([4]; 0.0128 nM) | relative viability ([4]; 0.064 nM) | relative viability ([4]; 0.32 nM) | relative viability ([4]; 1.6 nM) | relative viability ([4]; 8 nM) | relative viability ([4]; 40 nM) | relative viability ([4]; 200 nM) | relative viability ([4]; 1000 nM) | relative viability ([4]; 5000 nM)
1 | NC(=O)Nc1cc(-c2cccc(F)c2)sc1C(=O)N[C@H]1CCCNC1 [AZD7762] | 99 ± 1.1 | 98.96 ± 0.94 | 98.3 ± 0.4 | 83.6 ± 0.97 | 22.27 ± 0.029 | 3.24 ± 0.41 | 102 ± 4.3 | 108 ± 1.8 | 88.76 ± 0.17 | 32.13 ± 0.32 | 17.1 ± 0.87 | 6.55 ± 0.31 | 0.976 | 0.981 | 1.07 | 1.08 | 0.341 | 0.00441 | 0.00215 | 0.000402 | 0.00128 | 0.981 | 0.92 | 0.935 | 0.731 | 0.244 | 0.0116 | 0.00396 | 0.000482 | 0.00108
2 | O=C(/C=C/c1cccc(S(=O)(=O)Nc2ccccc2)c1)NO [Belinostat(PXD101)] | 97.7 ± 1.1 | 97 ± 2.6 | 97.46 ± 0.88 | 92.7 ± 1.6 | 77.17 ± 0.11 | 9.88 ± 0.36 | 109 ± 3.7 | 111.1 ± 1.1 | 107 ± 1.1 | 94.4 ± 1.9 | 85.6 ± 1.9 | 44.6 ± 0.66 | 1.11 | 0.925 | 1.01 | 0.986 | 0.987 | 0.854 | 0.277 | 0.00312 | 0.001 | 1.07 | 1.04 | 1.01 | 1.03 | 1.18 | 0.923 | 0.646 | 0.271 | 0.0621
3 | CC(C)C[C@H](NC(=O)[C@H](Cc1ccccc1)NC(=O)c1cnccn1)B(O)O [Bortezomib] | 97.4 ± 1.6 | 90 ± 4.2 | 2.332 ± 0.012 | 1.43 ± 0.049 | 1.14 ± 0.0052 | 1.03 ± 0.066 | 110 ± 1.3 | 102 ± 2.8 | 5.8 ± 0.15 | 3.06 ± 0.034 | 2.21 ± 0.16 | 1.87 ± 0.13 | 1.02 | 0.99 | 1.02 | 0.62 | 0.0154 | 0.00739 | 0.0026 | 0.000806 | 0.000906 | 1.07 | 1.03 | 0.903 | 0.16 | 0.0107 | 0.00306 | 0.00178 | 0.000877 | 0.000659

From the supplement of paper PMC8960247
